According to paper PMC2606016 (The Journal of Biological Chemistry, 2008):

Key:
HoNTT = target: T1, HoNTT (Holospora obtusa, UniProt W6TTK3); conditions: 30 °C; labelled compound
T1 sequence (W6TTK3 1-514): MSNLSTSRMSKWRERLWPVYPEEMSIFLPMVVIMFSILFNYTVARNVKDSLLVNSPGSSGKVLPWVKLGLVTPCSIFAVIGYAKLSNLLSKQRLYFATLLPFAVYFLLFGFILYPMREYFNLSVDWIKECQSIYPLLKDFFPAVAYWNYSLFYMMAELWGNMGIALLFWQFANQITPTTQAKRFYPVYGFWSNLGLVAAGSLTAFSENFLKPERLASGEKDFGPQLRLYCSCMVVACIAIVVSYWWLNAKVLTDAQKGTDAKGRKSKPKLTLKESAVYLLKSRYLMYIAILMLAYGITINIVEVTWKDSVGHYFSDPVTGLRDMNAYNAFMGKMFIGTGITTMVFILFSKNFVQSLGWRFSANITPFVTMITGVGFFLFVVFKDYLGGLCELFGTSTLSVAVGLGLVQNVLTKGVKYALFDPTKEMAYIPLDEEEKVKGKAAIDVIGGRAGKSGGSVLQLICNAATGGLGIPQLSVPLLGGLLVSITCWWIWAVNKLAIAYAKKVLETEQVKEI

AtNTT1 = target: T2, AtNTT1 (Arabidopsis thaliana, UniProt Q39002); conditions: 30 °C; labelled compound
T2 sequence (Q39002 87-624): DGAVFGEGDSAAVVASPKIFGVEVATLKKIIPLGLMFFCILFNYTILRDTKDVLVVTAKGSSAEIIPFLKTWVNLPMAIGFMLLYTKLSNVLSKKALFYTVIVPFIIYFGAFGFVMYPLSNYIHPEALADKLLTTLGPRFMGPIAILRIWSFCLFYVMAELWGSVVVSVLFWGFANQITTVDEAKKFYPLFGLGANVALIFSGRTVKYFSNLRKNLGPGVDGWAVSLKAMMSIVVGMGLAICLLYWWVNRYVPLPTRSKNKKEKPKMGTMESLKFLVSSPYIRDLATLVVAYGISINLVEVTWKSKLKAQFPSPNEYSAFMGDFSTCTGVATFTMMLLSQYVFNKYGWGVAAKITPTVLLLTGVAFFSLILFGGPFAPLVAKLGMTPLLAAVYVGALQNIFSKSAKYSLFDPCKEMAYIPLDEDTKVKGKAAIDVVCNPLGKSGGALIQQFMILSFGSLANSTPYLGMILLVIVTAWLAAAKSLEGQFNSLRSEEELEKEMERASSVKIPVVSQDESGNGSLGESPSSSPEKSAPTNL

Nc1ncnc2c1ncn2[C@@H]1O[C@H](COP(=O)(O)OP(=O)(O)OP(=O)(O)O)[C@@H](O)[C@H]1O [ATP]
uptake of labelled substrate into proteoliposomes (HoNTT): All recombinant carriers mediated ATP and ADP transport | uptake of labelled substrate into proteoliposomes (AtNTT1): All recombinant carriers mediated ATP and ADP transport
